According to publication PMC8803428, “Pharmacokinetics of Ginsenoside Rb1, Rg3, Rk1, Rg5, F2, and Compound K from Red Ginseng Extract in Healthy Korean Volunteers” (Evidence-based Complementary and Alternative Medicine : eCAM, 2022):
Read-outs that look alike come from different tables or passages of the source. Values belong to the molecule of their own block, whether it stands above or below them.

How the values were obtained:
[1] = Stability of the ginsenosides in human plasma (QC samples, LC-MS/MS method validation); type: in vitro ADME
Method: The LC-MS/MS method was validated to determine selectivity, lower limits of quantification (LLOQ), accuracy, precision, recovery, matrix effect, and stability, according to the guideline for validating the bioanalytical method. The selectivity of the method was evaluated by comparison of blank plasma from six different men to the corresponding spiked plasma sample at the level of LLOQ to investigate the potential interferences at the LC chromatographic conditions for ginsenoside analytes and IS. The signal-to-noise ratio (S/N) of the LLOQ sample was at least five times the response compared to the blank samples. Each calibration curve was constructed by plotting the peak area ratio (y) of the analyte to IS against the spiked concentrations (x) of each analyte. Linearity was assessed by weighted (1/x^2) least squares regression analysis. The LLOQ was defined as the lowest concentration on the calibration curve with an S/N ratio of 10, where the precision and accuracy bias were within ±20% by five replicate analyses. The intra- and interday precision and accuracy assessments were performed at four concentrations with five replicates on the same day and three consecutive days, respectively. The acceptance criterion recommended by the guideline of precision and the accuracy was ±15% of the nominal concentration. The recovery of the seven ginsenosides was determined at three QC levels with three replicates by comparing the peak areas of plasma extracts spiked with analytes before extraction with those of the postextraction spiked samples at the same concentration. The matrix effects were investigated by comparing the peak areas of the analytes dissolved in the pretreated blank plasma with the corresponding concentrations prepared in the reconstitution solution with three replicates. The stability of the analytes in human plasma was assessed by analyzing five replicates of plasma samples at low, medium, and high QC levels under four different conditions. Short-term stability was evaluated after the exposure of QC samples to room temperature for 19 h before processing and analysis. The freeze and thaw stability was tested after three repeated cycles of thawing at room temperature and freezing at approximately −70°C. The long-term stability was assessed after storage at approximately −70°C for 50 days. The post-preparative stability was examined after the exposure of processed samples at ambient temperature (stored in an HPLC autosampler) for 34 h.

[2] = parameters: method as in earlier work; conditions: after oral Korean Red ginseng extract, ref 25 (Kim et al.); cited from earlier work
[3] = Pharmacokinetics of ginsenosides in plasma after a single oral dose of RG or BRG capsules in healthy Korean men (LC-MS/MS); type: in vivo, human; conditions: for AUC(0-t): read-out: AUC(0–t); for AUC(0-inf): read-out: AUC(0–∞)
Text: This study was designed as a randomized, open-label, single-dose, crossover study with washout every 1 week to evaluate the pharmacokinetics and safety of ginsenosides. Subjects were randomly assigned to either the RG or BRG group during the first period of the study (Figure 2). After 1 week of the washout period, other products that were not received in the first period were provided. All enrolled subjects were hospitalized at Bestian Clinical Trial Center on the day before taking RG or BRG. Subjects were provided regular meals, and additional food intake was restricted after the meal. The next day, the subjects who had maintained the fasting state for 10 h took the capsules corresponding to 5 g of RG and BRG orally. Water was restricted for 1 h before and after intake, and food intake was restricted for 4 h after administration. After 4 h, all subjects received a standardized meal. In addition, lying down or sleeping was prohibited for 8 h after oral administration. Blood samples (5 mL) were collected before dosing and at each time point (0, 0.5, 1, 2, 4, 6, 8, 10, 12, and 24 h) after dosing. All blood samples were collected in heparin-treated tubes. The blood samples were promptly centrifuged at 3,000 rpm for 10 min at 4°C, and the plasma samples obtained were stored in a deep freezer at −70 ± 10°C until assay.
All analyses were performed using an Agilent 1200 series HPLC system (Agilent) with a Luna Phenyl-Hexyl column (2.0 × 150 mm, 5 μm; Phenomenex, CA, USA). The mobile phase comprised water (solvent A) and acetonitrile (solvent B) containing 0.1% formic acid. The flow rate of the mobile phase was 0.25–0.35 mL/min. The initial condition of 70% solvent A was set to 5% solvent A over 15 min. The content of ginsenosides in human plasma was measured using an API 5500 mass spectrometer (AB Sciex, Foster City, CA, USA) capable of multiple reaction monitoring (MRM). The parent-daughter ion pairs monitored were 845.5 ⟶ 799.6 for Rg1, 1153.6 ⟶ 1107.5 for Rb1, 829.4 ⟶ 783.5 for Rg3, and F2, 811.4 ⟶ 161.0 for Rg5 and Rk1, 667.4 ⟶ 161.0 for CK, and 825.4 ⟶ 779.3 for digoxin as an IS in the negative ion mode. Nitrogen gas was used in the nebulizer and the collision cell. The ion spray voltage was set to 5500 V.
Standard plasma samples were prepared such that each ginsenoside was in the concentration range of 0.5–100 ng/mL; 10 μL of a standard mixture of six kinds of ginsenosides (Rg1, Rb1, Rg5 + Rk1, F2, and CK) was added to 90 μL of blank human plasma. Rg3 was prepared in the concentration range of 0.2–40 ng/mL. Standard plasma samples (100 μL) were added to 200 μL of methanol containing 50 ng/mL digoxin, an IS. These were mixed for 1 min and then centrifuged at 12,000 rpm for 5 min at 4°C. Then, 100 μL of the supernatant was transferred to an LC vial, and 10 μL was injected into the LC-MS/MS system. Plasma samples stored at −70°C were thawed at room temperature. Samples for LC-MS/MS analysis were pretreated in the same manner as standard plasma samples.
Plasma concentrations of seven ginsenosides were calculated from calibration curves by calculating the ratio of the peak area of the test substance to the peak area of the IS. The following pharmacokinetic parameters were measured using Phoenix WinNonlin 6.3 (Pharsight Co, CA, USA): time to reach maximum observed plasma drug concentration (Tmax), maximum observed plasma drug concentration (Cmax), area under the plasma drug concentration-time curve from 0 h to the final measured time (AUC(0–t)), area under the plasma drug concentration–time curve from 0 h to infinity (AUC(0–∞)), and terminal elimination half-life (t1/2).

[4] = male, human, plasma, po, 5 g, plasma, after single oral 5 g BRG, n = 13, mean ± SD
[5] = male, human, plasma, po, 5 g, plasma, after single oral 5 g RG, n = 13, mean ± SD

Freeze-thaw stability, concentration found ([1]; human plasma, 3 cycles, 1.5 ng/mL): 98.65 ± 0.66%
Freeze-thaw stability, concentration found ([1]; human plasma, 3 cycles, 80 ng/mL): 100.70 ± 2.36%
Short-term stability, concentration found ([1]; human plasma, 19 h at room temperature, 1.5 ng/mL): 98.19 ± 1.40%
Short-term stability, concentration found ([1]; human plasma, 19 h at room temperature, 80 ng/mL): 96.93 ± 5.41%
Long-term stability, concentration found ([1]; human plasma, 50 days at -70℃, 1.5 ng/mL): 102.01 ± 1.78%
Long-term stability, concentration found ([1]; human plasma, 50 days at -70℃, 80 ng/mL): 105.06 ± 2.73%
Autosampler stability, concentration found ([1]; processed plasma samples, 34 h at ambient temperature, 1.5 ng/mL): 97.98 ± 3.55%
Autosampler stability, concentration found ([1]; processed plasma samples, 34 h at ambient temperature, 80 ng/mL): 100.35 ± 5.32%
detection in plasma at the initial time point (0 h) of the second treatment period ([3]; after 1 week washout): did not detect
Cmax ([3]; male, human, in vivo, po, C max): 4.04 ± 1.71 ng/mL
half-life ([3]; male, human, plasma, oral, 5 g, range over RG and BRG groups, read-out: t1/2): 38 to 46 h
AUC(0-t) [3, 4]: 56.9 ± 19.6 ng·h/mL
AUC(0-inf) [3, 4]: 182 ± 94.4 ng·h/mL
Cmax ([3]; male, human, plasma, po, 5 g, plasma, after single oral 5 g BRG, n = 13, mean ± SD, read-out: C max): 3.19 ± 1.13 ng/mL
half-life ([3]; male, human, plasma, po, 5 g, plasma, after single oral 5 g BRG, n = 13, mean ± SD, read-out: T 1/2 (converted)): 38.1 ± 13.5 h
Tmax ([3]; male, human, plasma, po, 5 g, plasma, after single oral 5 g BRG, n = 13, mean ± SD, read-out: T max): 6.92 ± 1.55 h
AUC(0-t) [3, 5]: 73.2 ± 29.8 ng·h/mL
AUC(0-inf) [3, 5]: 257 ± 115 ng·h/mL
half-life ([3]; male, human, plasma, po, 5 g, plasma, after single oral 5 g RG, n = 13, mean ± SD, read-out: T 1/2 (converted)): 45.9 ± 21.9 h
Tmax ([3]; male, human, plasma, po, 5 g, plasma, after single oral 5 g RG, n = 13, mean ± SD, read-out: T max): 7.23 ± 1.92 h
SMILES: CC(C)=CCC[C@](C)(O[C@@H]1O[C@H](CO[C@@H]2O[C@H](CO)[C@@H](O)[C@H](O)[C@H]2O)[C@@H](O)[C@H](O)[C@H]1O)[C@H]1CC[C@]2(C)[C@@H]1[C@H](O)C[C@@H]1[C@@]3(C)CC[C@H](O[C@@H]4O[C@H](CO)[C@@H](O)[C@H](O)[C@H]4O[C@@H]4O[C@H](CO)[C@@H](O)[C@H](O)[C@H]4O)C(C)(C)[C@@H]3CC[C@]12C [Rb1, ginsenoside Rb1]
Cmax [2]: 3.94 ± 1.97 ng/mL

detection in the plasma samples ([3]; after oral RG or BRG): not detected
SMILES: CC(C)=CCC[C@](C)(O[C@@H]1O[C@H](CO)[C@@H](O)[C@H](O)[C@H]1O)[C@H]1CC[C@]2(C)[C@@H]1[C@H](O)C[C@@H]1[C@@]3(C)CC[C@H](O)C(C)(C)[C@@H]3[C@@H](O[C@@H]3O[C@H](CO)[C@@H](O)[C@H](O)[C@H]3O)C[C@]12C [Rg1, ginsenoside Rg1]

Freeze-thaw stability, concentration found ([1]; human, 0.6 ng/mL): 97.73 ± 3.53%
Freeze-thaw stability, concentration found ([1]; human, 32 ng/mL): 95.33 ± 2.75%
Short-term stability, concentration found ([1]; human, 19 h, 0.6 ng/mL): 102.32 ± 2.68%
Short-term stability, concentration found ([1]; human, 19 h, 32 ng/mL): 96.32 ± 1.48%
Autosampler stability, concentration found ([1]; human, 34 h, 0.6 ng/mL): 102.95 ± 5.52%
Autosampler stability, concentration found ([1]; human, 34 h, 32 ng/mL): 97.25 ± 1.45%
Long-term stability, concentration found ([1]; human, 50 days, 0.6 ng/mL): 104.15 ± 8.68%
Long-term stability, concentration found ([1]; human, 50 days, 32 ng/mL): 99.84 ± 3.12%
detection in plasma at the initial time point (0 h) of the second treatment period ([3]; in vivo): did not detect
T 1/2 ([3]; male, human, in vivo, po): 5.70 ± 0.73^∗ h
T max ([3]; male, human, in vivo, po): 4.23 ± 1.54 h
half-life ([3]; male, human, in vivo, po, T 1/2): 5.58 ± 3.63 h
Tmax ([3]; male, human, in vivo, po, T max): 3.85 ± 1.28 h
SMILES: CC(C)=CCC[C@](C)(O)[C@H]1CC[C@]2(C)[C@@H]1[C@H](O)C[C@@H]1[C@@]3(C)CC[C@H](O[C@@H]4O[C@H](CO)[C@@H](O)[C@H](O)[C@H]4O[C@@H]4O[C@H](CO)[C@@H](O)[C@H](O)[C@H]4O)C(C)(C)[C@@H]3CC[C@]12C [Rg3, ginsenoside Rg3]
